From the NIST ThermoML archive (doi:10.1016/j.fluid.2010.03.010)
± gives the expanded uncertainty stated by the source.

Settings: Liquid, Vibrating tube method

CCOS(=O)(=O)[O-].CCn1cc[n+](C)c1 [1-ethyl-3-methylimidazolium ethyl sulfate]
mass density (342.15 K, 101.33 kPa): 1208.29 ± 9.7 kg/m3
mass density (343.15 K, 100 kPa): 1207.4 ± 9.7 kg/m3
mass density (343.15 K, 101.33 kPa): 1207.63 ± 9.7 kg/m3
mass density (343.15 K, 250 kPa): 1207.5 ± 9.7 kg/m3
mass density (343.15 K, 500 kPa): 1207.6 ± 9.7 kg/m3
mass density (343.15 K, 1010 kPa): 1207.8 ± 9.7 kg/m3
mass density (343.15 K, 1990 kPa): 1208.3 ± 9.7 kg/m3
mass density (343.15 K, 4990 kPa): 1209.6 ± 9.7 kg/m3
mass density (343.15 K, 10010 kPa): 1211.9 ± 9.7 kg/m3
mass density (343.15 K, 14990 kPa): 1214.1 ± 9.7 kg/m3
mass density (343.15 K, 20010 kPa): 1216.3 ± 9.7 kg/m3
mass density (343.15 K, 24990 kPa): 1218.3 ± 9.8 kg/m3
mass density (343.15 K, 30000 kPa): 1220.4 ± 9.8 kg/m3
mass density (343.15 K, 35010 kPa): 1222.4 ± 9.8 kg/m3
mass density (343.15 K, 40000 kPa): 1224.5 ± 9.8 kg/m3
mass density (343.15 K, 45000 kPa): 1226.4 ± 9.8 kg/m3
mass density (343.15 K, 50000 kPa): 1228.4 ± 9.9 kg/m3
mass density (343.15 K, 54990 kPa): 1230.3 ± 9.9 kg/m3
mass density (343.15 K, 60000 kPa): 1232.2 ± 9.9 kg/m3
mass density (344.15 K, 101.33 kPa): 1206.97 ± 9.7 kg/m3
mass density (345.15 K, 101.33 kPa): 1206.32 ± 9.7 kg/m3
mass density (346.15 K, 101.33 kPa): 1205.66 ± 9.7 kg/m3
mass density (347.15 K, 101.33 kPa): 1205.01 ± 9.7 kg/m3
mass density (348.15 K, 101.33 kPa): 1204.36 ± 9.6 kg/m3
mass density (349.15 K, 101.33 kPa): 1203.7 ± 9.6 kg/m3
mass density (350.15 K, 101.33 kPa): 1203.05 ± 9.6 kg/m3
mass density (351.15 K, 101.33 kPa): 1202.4 ± 9.6 kg/m3
mass density (352.15 K, 101.33 kPa): 1201.75 ± 9.6 kg/m3
mass density (353.15 K, 100 kPa): 1200.9 ± 9.6 kg/m3
mass density (353.15 K, 101.33 kPa): 1201.09 ± 9.6 kg/m3
mass density (353.15 K, 250 kPa): 1200.9 ± 9.6 kg/m3
mass density (353.15 K, 500 kPa): 1201 ± 9.6 kg/m3
mass density (353.15 K, 1010 kPa): 1201.3 ± 9.6 kg/m3
mass density (353.15 K, 2000 kPa): 1201.8 ± 9.6 kg/m3
mass density (353.15 K, 4990 kPa): 1203.1 ± 9.6 kg/m3
mass density (353.15 K, 10010 kPa): 1205.5 ± 9.7 kg/m3
mass density (353.15 K, 15000 kPa): 1207.6 ± 9.7 kg/m3
mass density (353.15 K, 20000 kPa): 1209.9 ± 9.7 kg/m3
mass density (353.15 K, 24990 kPa): 1212 ± 9.7 kg/m3
mass density (353.15 K, 30010 kPa): 1214.2 ± 9.7 kg/m3
mass density (353.15 K, 34990 kPa): 1216.2 ± 9.8 kg/m3
mass density (353.15 K, 40000 kPa): 1218.3 ± 9.8 kg/m3
mass density (353.15 K, 45000 kPa): 1220.2 ± 9.8 kg/m3
mass density (353.15 K, 50000 kPa): 1222.3 ± 9.8 kg/m3
mass density (353.15 K, 54990 kPa): 1224.2 ± 9.8 kg/m3
mass density (353.15 K, 60000 kPa): 1226.1 ± 9.8 kg/m3
mass density (354.15 K, 101.33 kPa): 1200.44 ± 9.6 kg/m3
mass density (355.15 K, 101.33 kPa): 1199.79 ± 9.6 kg/m3
mass density (356.15 K, 101.33 kPa): 1199.14 ± 9.6 kg/m3
mass density (357.15 K, 101.33 kPa): 1198.49 ± 9.6 kg/m3
mass density (358.15 K, 101.33 kPa): 1197.84 ± 9.6 kg/m3
mass density (359.15 K, 101.33 kPa): 1197.2 ± 9.6 kg/m3
mass density (360.15 K, 101.33 kPa): 1196.55 ± 9.6 kg/m3
mass density (361.15 K, 101.33 kPa): 1195.9 ± 9.6 kg/m3
mass density (362.15 K, 101.33 kPa): 1195.26 ± 9.6 kg/m3
mass density (363.15 K, 100 kPa): 1194.3 ± 9.6 kg/m3
mass density (363.15 K, 101.33 kPa): 1194.61 ± 9.6 kg/m3
mass density (363.15 K, 250 kPa): 1194.4 ± 9.6 kg/m3
mass density (363.15 K, 500 kPa): 1194.5 ± 9.6 kg/m3
mass density (363.15 K, 1000 kPa): 1194.7 ± 9.6 kg/m3
mass density (363.15 K, 2000 kPa): 1195.2 ± 9.6 kg/m3
mass density (363.15 K, 4990 kPa): 1196.6 ± 9.6 kg/m3
mass density (363.15 K, 10010 kPa): 1199 ± 9.6 kg/m3
mass density (363.15 K, 14990 kPa): 1201.3 ± 9.6 kg/m3
mass density (363.15 K, 19990 kPa): 1203.6 ± 9.6 kg/m3
mass density (363.15 K, 25000 kPa): 1205.7 ± 9.7 kg/m3
mass density (363.15 K, 30000 kPa): 1207.9 ± 9.7 kg/m3
mass density (363.15 K, 34990 kPa): 1210 ± 9.7 kg/m3
mass density (363.15 K, 40000 kPa): 1212.2 ± 9.7 kg/m3
mass density (363.15 K, 45000 kPa): 1214.2 ± 9.7 kg/m3
mass density (363.15 K, 50000 kPa): 1216.2 ± 9.8 kg/m3
mass density (363.15 K, 55000 kPa): 1218.2 ± 9.8 kg/m3
mass density (363.15 K, 60000 kPa): 1220.2 ± 9.8 kg/m3
mass density (373.15 K, 100 kPa): 1187.8 ± 9.5 kg/m3
mass density (373.15 K, 250 kPa): 1187.9 ± 9.5 kg/m3
mass density (373.15 K, 500 kPa): 1188 ± 9.5 kg/m3
mass density (373.15 K, 1010 kPa): 1188.2 ± 9.5 kg/m3
mass density (373.15 K, 2000 kPa): 1188.7 ± 9.5 kg/m3
mass density (373.15 K, 4990 kPa): 1190.2 ± 9.5 kg/m3
mass density (373.15 K, 10010 kPa): 1192.6 ± 9.6 kg/m3
mass density (373.15 K, 14990 kPa): 1194.9 ± 9.6 kg/m3
mass density (373.15 K, 20010 kPa): 1197.3 ± 9.6 kg/m3
mass density (373.15 K, 25000 kPa): 1199.5 ± 9.6 kg/m3
mass density (373.15 K, 30010 kPa): 1201.7 ± 9.6 kg/m3
mass density (373.15 K, 34990 kPa): 1203.9 ± 9.7 kg/m3
mass density (373.15 K, 40000 kPa): 1206.1 ± 9.7 kg/m3
mass density (373.15 K, 45000 kPa): 1208.1 ± 9.7 kg/m3
mass density (373.15 K, 50000 kPa): 1210.2 ± 9.7 kg/m3
mass density (373.15 K, 54990 kPa): 1212.3 ± 9.7 kg/m3
mass density (373.15 K, 60000 kPa): 1214.3 ± 9.8 kg/m3
mass density (393.15 K, 100 kPa): 1174.8 ± 9.4 kg/m3
mass density (393.15 K, 250 kPa): 1174.9 ± 9.4 kg/m3
mass density (393.15 K, 500 kPa): 1175 ± 9.4 kg/m3
mass density (393.15 K, 1010 kPa): 1175.3 ± 9.4 kg/m3
mass density (393.15 K, 2000 kPa): 1175.8 ± 9.4 kg/m3
mass density (393.15 K, 4990 kPa): 1177.3 ± 9.4 kg/m3
mass density (393.15 K, 10000 kPa): 1179.9 ± 9.4 kg/m3
mass density (393.15 K, 15000 kPa): 1182.3 ± 9.5 kg/m3
mass density (393.15 K, 20010 kPa): 1184.8 ± 9.5 kg/m3
mass density (393.15 K, 24990 kPa): 1187.1 ± 9.5 kg/m3
mass density (393.15 K, 30010 kPa): 1189.5 ± 9.5 kg/m3
mass density (393.15 K, 34990 kPa): 1191.7 ± 9.6 kg/m3
mass density (393.15 K, 40000 kPa): 1194 ± 9.6 kg/m3
mass density (393.15 K, 45010 kPa): 1196.2 ± 9.6 kg/m3
mass density (393.15 K, 50000 kPa): 1198.4 ± 9.6 kg/m3
mass density (393.15 K, 55000 kPa): 1200.5 ± 9.6 kg/m3
mass density (393.15 K, 60000 kPa): 1202.6 ± 9.7 kg/m3
mass density (413.15 K, 100 kPa): 1161.7 ± 9.3 kg/m3
mass density (413.15 K, 250 kPa): 1161.8 ± 9.3 kg/m3
mass density (413.15 K, 500 kPa): 1162 ± 9.3 kg/m3
mass density (413.15 K, 1010 kPa): 1162.2 ± 9.3 kg/m3
mass density (413.15 K, 2000 kPa): 1162.8 ± 9.3 kg/m3
mass density (413.15 K, 4990 kPa): 1164.4 ± 9.3 kg/m3
mass density (413.15 K, 10000 kPa): 1167.2 ± 9.3 kg/m3
mass density (413.15 K, 14990 kPa): 1169.7 ± 9.4 kg/m3
mass density (413.15 K, 20010 kPa): 1172.4 ± 9.4 kg/m3
mass density (413.15 K, 24990 kPa): 1174.8 ± 9.4 kg/m3
mass density (413.15 K, 30000 kPa): 1177.4 ± 9.4 kg/m3
mass density (413.15 K, 34990 kPa): 1179.7 ± 9.5 kg/m3
mass density (413.15 K, 40000 kPa): 1182.1 ± 9.5 kg/m3
mass density (413.15 K, 45000 kPa): 1184.4 ± 9.5 kg/m3
mass density (413.15 K, 50000 kPa): 1186.7 ± 9.5 kg/m3
mass density (413.15 K, 54990 kPa): 1188.9 ± 9.5 kg/m3
mass density (413.15 K, 60000 kPa): 1191.1 ± 9.6 kg/m3
mass density (433.15 K, 100 kPa): 1148.6 ± 9.2 kg/m3
mass density (433.15 K, 250 kPa): 1148.7 ± 9.2 kg/m3
mass density (433.15 K, 500 kPa): 1148.8 ± 9.2 kg/m3
mass density (433.15 K, 1010 kPa): 1149.1 ± 9.2 kg/m3
mass density (433.15 K, 2000 kPa): 1149.7 ± 9.2 kg/m3
mass density (433.15 K, 4990 kPa): 1151.4 ± 9.2 kg/m3
mass density (433.15 K, 10010 kPa): 1154.4 ± 9.2 kg/m3
mass density (433.15 K, 14990 kPa): 1157.1 ± 9.3 kg/m3
mass density (433.15 K, 20010 kPa): 1159.9 ± 9.3 kg/m3
mass density (433.15 K, 24990 kPa): 1162.5 ± 9.3 kg/m3
mass density (433.15 K, 30010 kPa): 1165.2 ± 9.3 kg/m3
mass density (433.15 K, 34990 kPa): 1167.6 ± 9.4 kg/m3
mass density (433.15 K, 40000 kPa): 1170.2 ± 9.4 kg/m3
mass density (433.15 K, 45010 kPa): 1172.6 ± 9.4 kg/m3
mass density (433.15 K, 50000 kPa): 1175.1 ± 9.4 kg/m3
mass density (433.15 K, 54990 kPa): 1177.4 ± 9.4 kg/m3
mass density (433.15 K, 60000 kPa): 1179.7 ± 9.5 kg/m3
